Experimental data as given in patent US20200147169A1, “COMPOSITION COMPRISING A HIGH CONCENTRATION OF ITURIN LIPOPEPTIDES” (LIPOFABRIK, priority 2017, published 2020).

Test: Solubility of iturinic lipopeptide (mycosubtilin) alone or in compositions with surfactants; supernatant after centrifugation analysed by RP-HPLC
Type: physicochemical
Procedure: An iturinic lipopeptide (here mycosubtilin), having a purity (on dry matter) of between 45% and 80%, was solubilized alone in water at different concentrations and this control composition was compared to different compositions to which different surfactant compounds were added as described in the application. After 15 days of storage at 21° C., only compositions with a rheological behaviour of the fluid type and a homogeneous appearance (without flow preventing caking and/or phase shift and/or precipitation) are selected, mixed by stirring, then these compositions are centrifuged for 10 minutes at 10,000 g and the supernatant is analysed using the RP-HPLC reference method. This method makes it possible to check the solubility of the iturinic compounds that are then found in the supernatant after centrifugation.
The solubility of iturinic lipopeptide (here mycosubtilin) alone in an aqueous solution as a function of its concentration is shown in FIG. 1. No surfactant is added to composition 1 which contains only iturinic lipopeptides.
The measurement is made on the supernatant after a centrifugation step to eliminate insoluble substances.

Substance: mycosubtilin
- solubility of mycosubtilin (alkylthoxyglycoside (AEG 0.4%, composition 8 of FIG. 2), 15 days at room temperature): above 30 g/L
- iturinic compound solubility (combination of surfactin and fengycin (composition 10 of FIG. 2), compared with fengycin or surfactin alone): even higher
- appearance / solubility beyond the maximum concentration (mycosubtilin alone in aqueous solution, between 5 and 25 g/L (FIG. 1)): a precipitate that settles can be observed and only a small part remains soluble
- maximum concentration at which mycosubtilin solubilizes (mycosubtilin alone in aqueous solution, room temperature, no surfactant (FIG. 1)): 2 g/L
- maximum solubility of mycosubtilin (non-ionic Simulsol and anionic Protéol, 10% each (composition 3 of FIG. 2), 15 days at room temperature): 15.3 g/L
- maximum solubility of mycosubtilin (non-ionic compound Emulsogen (0.2%) (composition 6 of FIG. 2), 15 days at room temperature): 11.6 g/L
- solubility of mycosubtilin (penthylene glycol (50%, composition 7 of FIG. 2), 15 days at room temperature): above 30 g/L
- solubility of mycosubtilin (presence of fengycin (10%, composition 2 of FIG. 2), 15 days at room temperature, supernatant after centrifugation): ~30 g/L
- solubility of mycosubtilin (presence of surfactin (4%, composition 9 of FIG. 2), 15 days at room temperature, supernatant after centrifugation): ~30 g/L
- maximum solubility of mycosubtilin (soy lecithin (4%) coupled with Xanthan gum (0.1%) (composition 4 of FIG. 2), 15 days at room temperature): 1.5 g/L
- maximum solubility of the iturinic compound (surfactin (4%) and non-ionic surfactant Emulsogen (0.2%) (composition 13 of FIG. 2), 15 days at room temperature): 112 g/L
